Columns and labels:
[1] = Pharmacokinetics of SNS-595 in cancer patients; type: in vivo, human
Method: SNS-595 was administered to enrolled patients for up to six cycles. A cycle is defined as a three-week period, with SNS-595 administered on the first day of each cycle (day 0), followed by at least 21 days of observation. SNS-595 was administered to cohorts of at least 3 patients and dose escalation occurred by sequential cohort.

non-proliferating cells = assay: Cytotoxicity to non-proliferating cells; type: cell-based; settings: doses cytotoxic to proliferating cells
Source text: (§1) Treatment with SNS-595 results in an increase in the number of double-strand DNA breaks that form during the S phase. This damage impedes the ability of the cell to synthesize DNA and lengthens the time the cell spends in the S phase. […] When the DNA damage is sufficiently severe such that the double-strand breaks cannot be repaired through non-homologous end joining (NHEJ), the cell rapidly enters apoptosis. Some cells are able to reach the G2 phase but are subsequently arrested (mediated by cdc2/cyclin B) because the cells are too damaged to enter into the M phase and also eventually becomes apoptotic.

DNA-PK pathway [2] = assay: Pharmacodynamic study, HCT116 xenograft tumors, Western blots (FIG. 3); type: in vivo; settings: nu/nu mice, IV bolus 20 or 40 mg/kg, 1-24 hours post dose
Method: Nu/nu mice (ca. 25 grams) were injected with HCT116 cells (which were obtained from the ATCC) in the hind flank at 5 million cells with 50% matrigel (Becton-Dickinson). Tumors were allowed to grow to 400 mm^3. Xenograft bearing animals were then given either an IV bolus injection of SNS-595 (20 or 40 mg/kg) in the tail vein or a saline vehicle. At prescribed time points (1, 2, 4, 8, 16, and 24 hours post dose), animals were anesthetized with CO2, blood was taken via terminal cardiac puncture, and animals were sacrificed. Tumors were excised, pulverized using liquid nitrogen-cooled mortar and pestle, and flash-frozen in liquid nitrogen. Tumor lysates were made from pulverized samples by addition of lysis buffer. The protein concentrations of the DNA-PK pathway members were determined by Western blots. Approximately 25 micrograms of protein was loaded per lane on an SDS-PAGE gel. Proteins were separated by gel electrophoresis, blotted onto nitrocellulose membranes, and detected using the following antibodies: H2AX, phosphorylated at S139 (Cell Signaling, catalog no. 2577L); p53, phosphorylated at S15 (Cell Signaling, catalog no. 9284S); p53, phosphorylated at S37 (Cell Signaling, catalog no. 9289S); p21 (Cell Signaling, catalog no. 2946); cdc2, phosphorylated at Y15 (Calbiochem, catalog no. 219437); cyclin B (Santa Cruz, catalog no.sc-594 (H-20)); p73, phosphorylated at […] […]

DNA-PK pathway [3] = assay: Dose-dependent responses of DNA-PK pathway members in HCT 116 cells (FIG. 2); type: cell-based; settings: H2AX, c-Abl, p53, p73, p21, caspase-9, caspase-3
Source text: as §1, with “This” for “Treatment with SNS-595 results in an increase in the number of double-strand DNA breaks that form during the S phase. This”

various cells = assay: Cytotoxicity of SNS-595 in various cells; type: cell-based
Source text: SNS-595 is a cell cycle inhibitor and arrests cells at the G2 interface. Initially, the activity of SNS-595 was believed due to topoisomerase II inhibition.
As shown by FIG. 1, ATM, ATR, and DNA-PK are three central DNA sensors/effectors that depending on the level of DNA damage that is detected within an individual cell, direct the cell into one of several outcomes including DNA repair, G2 arrest or apoptosis.

[4] = test system: stable variant of HCT-116 cells; assay: Sensitivity of SNS-595-resistant HCT-116 variant; type: cell-based; settings: cells with induced resistance
Source text: Consistent with this mechanism, cells with induced resistance to SNS-595 also have alterations in the DNA-PK pathway. […] Conversely, decreased levels of DNA-PK or its activity (e.g. in the presence of an inhibitor) is associated with an increased sensitivity to SNS-595.

relation of dose with AUC∞ ([1]; dose escalation by cohort): linear | MRT inf ([1]; human, intravenous, plasma, dose 3 mg/m2, mean, read-out: MRTINF_obs): 22 h | MRTINF_obs ([1]; plasma, dose 6 mg/m2, mean): 29.05 h | C0 ([1]; plasma, dose 12 mg/m2, mean): 2888.66 ng/mL | MRTINF_obs ([1]; plasma, dose 12 mg/m2, mean): 23.67 h
Compound: CN[C@H]1CN(c2ccc3c(=O)c(C(=O)O)cn(-c4nccs4)c3n2)C[C@@H]1OC [SNS-595, (+)-1,4-dihydro-7-[(3S,4S)-3-methoxy-4-(methylamino)-1-pyrrolidinyl]-4-oxo-1-(2-thiazoyl)-1,8-naphthyridine-3-carboxylic acid]
lethality to non-proliferating cells (non-proliferating cells): non-lethal | levels of DNA-PK pathway members in tumors (DNA-PK pathway [2]): activated | activation of DNA-PK mediated repair and apoptotic machinery (DNA-PK pathway [3]): activates, in a dose dependent manner | EC50 (various cells): 200 to 300 nM | difference in potency, cell EC50 versus biochemical inhibition of topoisomerase II (various cells): at least a ten-fold difference | EC50 in caffeine treated cells (G2 arrest abrogated) versus untreated cells (various cells; caffeine inhibits ATM and ATR): essentially no difference in EC50 values | activity in 2-deoxyglucose treated cells versus untreated cells (various cells; topoisomerase II levels modulated with 2-deoxyglucose): essentially no difference in activity | sensitivity to SNS-595 relative to HCT-116 cells [4]: approximately ten fold less sensitive

Source: patent US7968565B2, “Therapeutic combinations comprising (+)-1,4-dihydro-7-[(3S,4S)-3-methoxy-4-(methylamino)-1-pyrrolidinyl]-4-oxo-1-(2-thiazolyl)-1,8-naphthyridine-3-carboxylic acid” (Sunesis Pharmaceuticals, Inc., priority 2004, dated 2011)
